Measured values taken from ChEMBL document CHEMBL2150900, “β-Lactam synthon-interceded diastereoselective synthesis of functionalized octahydroindole-based molecular scaffolds and their in vitro cytotoxic evaluation” (Eur J Med Chem, 2012).

test: Cytotoxicity against human WHCO1 cells after 48 hrs by MTT assay; type: functional, cell-based; settings: WHCO1, 48 h

| Compound | IC50 [µM] |
| --- | --- |
| COC(=O)[C@H]1[C@H]2[C@H]([C@H](I)CC[C@@H]2C(=O)OC)N(c2ccccc2)[C@H]1c1ccccc1 (racemic) | 88.1 |
| COC(=O)[C@H]1[C@H]2[C@H]([C@H](I)CC[C@@H]2C(=O)OC)N(c2ccc(C)cc2)[C@H]1c1ccc(OC)cc1 (racemic) | 37.8 |
| COC(=O)[C@H]1[C@H]2[C@H]([C@H](I)CC[C@@H]2C(=O)OC)N(c2ccc(C)cc2)[C@H]1c1ccccc1 (racemic) | 40.3 |
| COC(=O)[C@H]1[C@H]2[C@H]([C@H](I)CC[C@@H]2C(=O)OC)N(c2ccccc2)[C@H]1c1ccc(OC)cc1 (racemic) | 37.1 |
| COC(=O)[C@H]1[C@H]2[C@H]([C@H](I)CC[C@@H]2C(=O)OC)N(c2ccccc2)[C@H]1c1ccc(Cl)cc1 (racemic) | 36.8 |
| Cc1ccc([C@@H]2[C@@H]3C(=O)NC(=O)[C@@H]4CC[C@@H](I)[C@@H]([C@H]34)N2c2ccc(C)cc2)cc1 (racemic) | 14.1 |
| Cc1ccc(N2[C@@H]3[C@@H]4[C@@H](C(=O)NC(=O)[C@@H]4CC[C@H]3I)[C@H]2c2ccc(Cl)cc2)cc1 (racemic) | 13 |
| O=C1NC(=O)[C@@H]2CC[C@@H](I)[C@H]3[C@@H]2[C@@H]1[C@@H](c1ccc(Cl)cc1)N3c1ccccc1 (racemic) | 17.6 |
